Measured values taken from PMC12164026, “Plant-derived nodule-specific cysteine-rich peptides as potent antifungal agents against Cryptococcus neoformans: mechanisms of action, chimeric peptide enhancement, and immunomodulatory effects” (Current Research in Microbial Sciences, 2025).
In brackets after ≈: the same amount, converted by molar mass. Like-named read-outs stand apart in the source and are kept apart here. Peptide text beside a SMILES is read from it.

Tests used:
[1] = tested on: J774.2 mouse macrophage cells; assay: Cytotoxicity, MTT assay; assay type: cell-based; conditions: 25 µM, 3 h, X-VIVO medium; for reduction in macrophage viability: relative to untreated control
Description: J774.2 cells were cultured as described previously and seeded into microtiter plates at a density of 5 × 10⁴ cells per well. The cells were incubated at 37 °C under 5 % CO₂ and 95 % relative humidity in X-VIVO™ medium until they adhered to the plate surface. Following attachment, cells were treated with peptides at their respective MIC concentrations in X-VIVO medium for 3 h under the same incubation conditions.
After peptide treatment, cells were washed with PBS (phosphate-buffered saline) and incubated in X-VIVO™ medium supplemented with 0.5 mg/mL MTT reagent (3-[4,5-dimethylthiazol-2-yl]−2,5-diphenyltetrazolium bromide, Merck KGaA, Darmstadt, Germany). The MTT assay was used to evaluate cell viability by staining live cells, leading to the formation of formazan crystals. These crystals were dissolved in dimethyl sulfoxide (DMSO), and absorbance was measured at 570 nm using a SPECTROstar Nano plate reader (BMG LabTech, Offenburg, Germany). The absorbance of untreated control cells was set as 100 % viability, and experimental results were expressed relative to this control. Each experiment was conducted in at least three independent biological replicates to ensure statistical reliability.

[2] = tested on: Cryptococcus neoformans IFM 5844; assay: Minimal fungicidal concentration (MFC) determination, spotting on YPD; assay type: cell-based; conditions: cultures from MIC assays diluted and spotted onto solid YPD, 30 °C, 48 h
Description: Minimal fungicidal concentration (MFC) determination. To assess fungicidal activity, both control and peptide-treated cultures from the MIC assays were diluted 10-fold and 100-fold in sterile distilled water. Five µL from each dilution was then spotted onto solid YPD medium (1 % pepton, 1 % dextrose, 0.5 % yeast extract, 2 % agar). The plates were incubated at 30 °C for 48 h and fungal growth was evaluated. MFC was defined as the lowest peptide concentration at which no visible fungal growth was detected, indicating complete fungicidal activity.

[3] = tested on: C. neoformans IFM 5844 cells; assay: Cell membrane permeability, calcein-AM assay by flow cytometry; assay type: cell-based, Cryptococcus neoformans; conditions: half-MIC, 2 h, 30 °C, YNB
Description: The effect of the peptides on the cell membrane permeability of C. neoformans IFM 5844 cells was checked by flow cytometry with calcein-AM assay ([Olson, et al., 2001]). Calcein-acetoxymethyl ester (calcein-AM) is a membrane-permeable live-cell dye that, upon entering the cell, is cleaved by intracellular esterases, converting it into calcein, a membrane-impermeable fluorescent marker. The assay was carried out by suspending a total of 1 × 10^7 cells in 100 µl YNB medium containing 20 µg/mL indomethacin (Sigma-Aldrich, Saint Louis, MO, USA) and incubating them at 30 °C for 30 min to inhibit calcein transporters. Following this pre-treatment, membrane-permeable calcein-AM (Invitrogen, Waltham, MA, USA) was added to a final concentration of 5 µg/mL, and the samples were incubated at 30 °C for 3 h allowing the calcein-AM to enter the cells where esterases converted it to fluorescent calcein. After incubation, cells were washed twice with sterile distilled water and subsequently exposed to peptides at half-MIC concentrations in YNB medium for 2 h at 30 °C. Following peptide treatment, cells were washed twice with sterile distilled water, and fluorescence intensity was measured using a FlowSight® flow cytometer (Amnis-EMD Millipore) equipped with a 488-nm excitation laser. Intact cells stained with calcein-AM but not exposed to peptides served as controls. To ensure statistical reliability, four independent experiments were conducted, and fluorescence intensity was recorded from 10,000 cells per sample during each experiment.

[4] = tested on: C. neoformans cells; assay: Effect of X1-NCR247C and calcofluor white on CFU; assay type: cell-based, Cryptococcus neoformans; conditions: calcofluor white 2.5 µg/mL alone, 20 min
Description: To assess the effect of X1-NCR247C peptide and calcofluor white, C. neoformans cells were subjected to different treatments. […] For staining, cells were treated with calcofluor white at 2.5 µg/mL for the same duration. As a control, cells were incubated only with calcofluor white for 20 min.
For combined treatment, cells were first exposed to calcofluor white (2.5 µg/mL) for 5 min, followed by the addition of X1-NCR247C (0.39 µM), and the incubation continued for 15 additional minutes. Following treatment, cells were washed once with sterile distilled water to remove residual peptide and dye. Serial 10-, 100-, 1000-, and 10,000-fold dilutions were prepared, and 50 µL from each dilution was plated onto solid YPD medium in triplicate. After 48 h of incubation at 30 °C, colony-forming units were counted to determine cell viability under each condition.

[5] = tested on: Cryptococcus neoformans IFM 5844; assay type: cell-based; conditions: half-diluted X-VIVO 15 medium, 37 °C, 48 h, OD 620 nm, ≥ 90 % growth inhibition, tested 25 to 0.39 µM, three biological replicates
Description: (§1) The susceptibility of Cryptococcus neoformans IFM 5844 to 20 peptides (Supplementary Table 1) was tested in a widely used synthetic medium to cultivate yeasts (YNB) and in a serum-free medium what is able to support the proliferation of macrophage cells (X-VIVO).
X-VIVO medium: half-diluted X-VIVO™ 15 cell culture medium (Lonza, Verviers, Belgium).
(§2) The minimal inhibitory concentration (MIC) of each peptide was determined by using micro-dilution assay. The C. neoformans suspensions were adjusted to 5 × 10^4 cells/mL concentration in either YNB or X-VIVO medium. A 96-well microtiter plate was prepared by adding 95 µL suspension per well followed by 5 µL of serially two-fold diluted peptide solutions achieving a final volume of 100 µl. The concentration of the peptides ranged from 25 to 0.39 µM. For control samples, 5 µL pure medium was added to the yeast cell suspension instead of peptides. Plates were incubated at 37 °C for 48 h in X-VIVO medium and 30 °C for 72 h in YNB medium. After incubation, optical density was measured at 620 nm using a SPECTROstar Nano plate reader (BMG LabTech, Offenburg, Germany). […] The experiments were carried out in three independent biological replicates.

[6] = tested on: Cryptococcus neoformans IFM 5844; assay: microbe, parasite or virus in culture; assay type: cell-based; conditions: five-fold diluted YNB + 1 % dextrose, 5 × 10^4 cells/mL, 30 °C, 72 h, OD 620 nm, ≥ 90 % growth inhibition, tested 25 to 0.39 µM, three biological replicates; read-out: MIC
Description: as §1
YNB medium: five-fold diluted Difco Yeast Nitrogen Base w/o Amino Acids medium (Becton, Dickinson and Company, Sparks, MD, USA) supplemented with 1 % dextrose
as §2

Row | SMILES | reduction in macrophage viability [1] [%] | fungistatic or fungicide mode of action [2] | calcein leakage / membrane permeability disruption [3] | MIC [6] [µM] | other results
1 | CC[C@H](C)[C@H](NC(=O)[C@H](CS)NC(=O)CNC(=O)[C@H](CC(N)=O)NC(=O)[C@@H](N)CCCNC(=N)N)C(=O)N[C@H](C(=O)N[C@@H](CC(=O)O)C(=O)N1CCC[C@H]1C(=O)N[C@@H](CCCNC(=N)N)C(=O)N[C@@H](CS)C(=O)N1CCC[C@H]1C(=O)N[C@@H](Cc1ccc(O)cc1)C(=O)N[C@@H](CCC(N)=O)C(=O)N[C@@H](CCC(N)=O)C(=O)N[C@@H](CS)C(=O)N[C@@H](CCCNC(=N)N)C(=O)N[C@@H](CCCNC(=N)N)C(=O)N1CCC[C@H]1C(=O)N[C@@H](CC(C)C)C(=O)N[C@@H](Cc1ccc(O)cc1)C(=O)N[C@@H](CS)C(=O)N[C@@H](CCCNC(=N)N)C(=O)N[C@@H](CCCNC(=N)N)C(=O)N[C@@H](CCCNC(=N)N)C(N)=O)C(C)C [NCR247] (H-RNGCIVDPRCPYQQCRRPLYCRRR-NH2; N-terminus assumed) | 25 | fungicidal effect |  |  | 
2 | CC[C@H](C)[C@H](NC(=O)[C@@H]1CCCN1C(=O)[C@@H](NC(=O)[C@H](CS)NC(=O)[C@H](Cc1ccc(O)cc1)NC(=O)[C@H](CO)NC(=O)[C@H](CCCCN)NC(=O)[C@H](CCCNC(=N)N)NC(=O)[C@H](CS)NC(=O)[C@H](CCCNC(=N)N)NC(=O)[C@@H](NC(=O)[C@H](CC(N)=O)NC(=O)[C@H](C)NC(=O)[C@H](CCCNC(=N)N)NC(=O)[C@H](CCCNC(=N)N)NC(=O)[C@H](CC(C)C)NC(=O)[C@@H](N)CCCCN)C(C)C)C(C)C)C(N)=O [NCR335C17–33] (H-KLRRANVRCRKSYCVPI-NH2; N-terminus assumed) | 15 | fungicidal effect | highest calcein leakage |  | 
3 | O=S(=O)(O)c1cc(Nc2nc(Nc3ccccc3)nc(N(CCO)CCO)n2)ccc1/C=C/c1ccc(Nc2nc(Nc3ccccc3)nc(N(CCO)CCO)n2)cc1S(=O)(=O)O [calcofluor white, reference compound] |  |  |  |  | effect on CFU counts [4]: did not reduce CFU counts
4 | CC[C@H](C)[C@H](NC(=O)[C@H](CCCCN)NC(=O)[C@H](CCCCN)NC(=O)[C@H](C)NC(=O)[C@H](CC(C)C)NC(=O)[C@H](C)NC(=O)[C@H](C)NC(=O)[C@H](CC(C)C)NC(=O)[C@H](C)NC(=O)[C@H](CCCCN)NC(=O)[C@H](CCCNC(=N)N)NC(=O)[C@H](CCCNC(=N)N)NC(=O)[C@H](CCCNC(=N)N)NC(=O)[C@H](CS)NC(=O)[C@H](Cc1ccc(O)cc1)NC(=O)[C@H](CC(C)C)NC(=O)[C@@H]1CCCN1C(=O)[C@H](CCCNC(=N)N)NC(=O)[C@H](CCCNC(=N)N)NC(=O)[C@H](CS)NC(=O)[C@H](CCC(N)=O)NC(=O)[C@@H](N)CCC(N)=O)C(=O)N[C@@H](CC(C)C)C(N)=O [NCR247C-X2] (H-QQCRRPLYCRRRKALAALAKKIL-NH2; N-terminus assumed) |  | fungicidal effect | highest calcein leakage | 0.78 | MIC [5]: 1.56 µM (≈ 4.3 µg/mL); proportion of calcein-stained cells ([3]; stained untreated control 75 %, four independent experiments): 8%
5 | CC[C@H](C)[C@H](NC(=O)[C@H](CCCCN)NC(=O)[C@H](CCCCN)NC(=O)[C@H](C)NC(=O)[C@H](CC(C)C)NC(=O)[C@H](C)NC(=O)[C@H](C)NC(=O)[C@H](CC(C)C)NC(=O)[C@H](C)NC(=O)[C@H](CCCCN)NC(=O)[C@H](CC(C)C)NC(=O)[C@H](CC(N)=O)NC(=O)[C@@H](NC(=O)[C@H](CCCCN)NC(=O)CNC(=O)[C@H](CC(C)C)NC(=O)[C@H](CC(C)C)NC(=O)[C@H](Cc1ccc(O)cc1)NC(=O)CNC(=O)[C@H](C)N)[C@@H](C)CC)C(=O)N[C@@H](CC(C)C)C(N)=O [TP10, reference compound] |  |  |  | 12.5 | macrophage viability compared to untreated control ([1]; p ≤ 0.01): significantly reduced macrophage viability
